Laboratory results as given in ChEMBL document CHEMBL1158145, “Xenofuranones A and B: phenylpyruvate dimers from Xenorhabdus szentirmaii” (J Nat Prod, 2006).
In brackets after ≈: the same amount, converted by molar mass.

Tested on: L929
Assay: Cytotoxicity against mouse L929 cells
Assay type: cell-based

In the case of `COC1=C(c2ccccc2)C(Cc2ccccc2)OC1=O` (stereo unspecified) [XENOFURANONE A], the IC50 is reported as 18 µg/mL (≈ 64.2 µM).
